Measurements reported in ChEMBL document CHEMBL1144878, “N-(omega-(4-(2-methoxyphenyl)piperazin-1-yl)alkyl)carboxamides as dopamine D2 and D3 receptor ligands” (J Med Chem, 2003).
pEC50, pKi: −log10 of the molar value.

How the values were obtained:
D(3) dopamine receptor [1] = target: T1, D(3) dopamine receptor (Homo sapiens, UniProt P35462); test: biochemical
Target sequence in this assay (P35462 whole entry): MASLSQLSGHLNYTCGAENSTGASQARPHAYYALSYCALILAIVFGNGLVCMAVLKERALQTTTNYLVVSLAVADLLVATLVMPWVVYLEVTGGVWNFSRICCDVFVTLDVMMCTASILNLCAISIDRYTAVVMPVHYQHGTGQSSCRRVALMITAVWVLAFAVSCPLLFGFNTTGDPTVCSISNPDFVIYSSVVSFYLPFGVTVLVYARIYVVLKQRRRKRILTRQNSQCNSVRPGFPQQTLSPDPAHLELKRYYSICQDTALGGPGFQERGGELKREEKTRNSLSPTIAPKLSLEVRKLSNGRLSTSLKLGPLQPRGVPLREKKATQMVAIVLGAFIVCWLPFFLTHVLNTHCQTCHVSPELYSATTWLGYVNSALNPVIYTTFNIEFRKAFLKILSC
Description: Binding affinity for human dopamine receptor D3 by displacing [125I]iodosulpiride expressed in CHO cells

D(2) dopamine receptor = D(2) dopamine receptor (Homo sapiens, UniProt P14416); test: biochemical
Description: Binding affinity for human dopamine receptor D2 by displacing [125I]iodosulpiride expressed in CHO cells

D(3) dopamine receptor [2] = target: T1, D(3) dopamine receptor; test: Effective concentration for Dopamine receptor D3 was determined; assay type: functional
Target sequence in this assay (P35462 whole entry, looked up): as the sequence (P35462 whole entry) above

[3] = tested on: D(3) dopamine receptor (Homo sapiens); test: Intrinsic activity for Dopamine receptor D3 was determined
[4] = target: D(3) dopamine receptor (Homo sapiens); test: Effective concentration for Dopamine receptor D3 was determined

Chain of D(2) dopamine receptor (P14416 whole entry): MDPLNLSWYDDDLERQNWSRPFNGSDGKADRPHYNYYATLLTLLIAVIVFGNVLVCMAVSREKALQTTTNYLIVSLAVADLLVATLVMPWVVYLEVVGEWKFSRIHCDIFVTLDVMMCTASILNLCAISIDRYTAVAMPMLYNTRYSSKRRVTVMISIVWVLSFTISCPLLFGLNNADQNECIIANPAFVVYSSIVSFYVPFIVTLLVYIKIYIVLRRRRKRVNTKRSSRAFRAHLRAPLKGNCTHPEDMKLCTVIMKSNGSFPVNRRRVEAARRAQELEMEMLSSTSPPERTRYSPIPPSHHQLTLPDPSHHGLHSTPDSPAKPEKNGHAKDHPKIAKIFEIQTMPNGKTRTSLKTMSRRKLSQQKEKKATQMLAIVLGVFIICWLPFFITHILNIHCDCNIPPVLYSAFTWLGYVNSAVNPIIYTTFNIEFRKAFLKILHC

Compound | pKi (D(3) dopamine receptor [1]) | pKi (D(2) dopamine receptor) | pEC50 (D(3) dopamine receptor [2]) | Intrinsic activity [3] | pEC50 [4]
COc1ccccc1N1CCN(CCCCNC(=O)/C=C/c2ccccc2I)CC1 | 9.12 | 7.20 | – | – | –
COc1ccccc1N1CCN(CCCCNC(=O)/C=C/c2ccc([N+](=O)[O-])cc2)CC1 | 9.13 | 7.85 | – | – | –
COc1ccccc1N1CCN(CCCNC(=O)c2ccc(I)cc2)CC1 | 6.40 | 6.93 | – | – | –
COc1ccccc1N1CCN(CCCCNC(=O)/C=C/c2ccc(C=O)cc2)CC1 | 9.14 | 7.94 | – | – | –
COc1ccccc1N1CCN(CCCCNC(=O)/C=C/c2ccc(C(C)(C)C)cc2)CC1 | 7.99 | 6.89 | – | – | –
COc1ccccc1N1CCN(CCCCNC(=O)/C=C/c2ccc(F)cc2)CC1 | 9.16 | 7.68 | – | – | –
COc1ccccc1N1CCN(CCCCNC(=O)/C=C/c2cc(I)c(OC)c(OC)c2)CC1 | 7.83 | 7.41 | – | – | –
COc1ccccc1N1CCN(CCCCNC(=O)/C=C/c2cccc(Oc3ccccc3)c2)CC1 | 7.71 | 6.94 | – | – | –
COc1ccccc1N1CCN(CCCCNC(=O)/C=C/c2ccc(Cl)cc2Cl)CC1 | 8.89 | 7.68 | – | – | –
COc1ccccc1N1CCN(CCCCNC(=O)c2ccc(-c3ccccc3)cc2)CC1 | 8.55 | – | – | – | –
COc1ccccc1N1CCN(Cc2ccc(CNC(=O)c3ccc4ccccc4c3)cc2)CC1 | 7.40 | 6.70 | – | – | –
COc1ccccc1N1CCN(CCCCNC(=O)/C=C/c2ccc(I)cc2)CC1 | 9.30 | 7.12 | – | – | –
COc1ccccc1N1CCN(CCCCN2C(=O)C=C(c3ccccc3)C2=O)CC1 | 6.49 | 6.48 | – | – | –
COc1ccccc1N1CCN(CCCCNC(=O)c2ccc(C(C)(C)C)cc2)CC1 | 8.10 | 7.58 | – | – | –
COc1ccccc1N1CCN(Cc2ccccc2CNC(=O)/C=C/c2ccccc2)CC1 | 6.49 | 7.74 | – | – | –
COc1ccccc1N1CCN(CCCCNC(=O)C2CC2c2ccccc2)CC1 (centres undefined) | 7.81 | 7.09 | – | – | –
COc1ccccc1N1CCN(CCCNC(=O)Cc2cccc3ccccc23)CC1 | 6.97 | 7.36 | – | – | –
COc1ccccc1N1CCN(CCCCNC(=O)/C=C/c2ccc(C(F)(F)F)cc2)CC1 | 8.67 | 7.43 | – | – | –
COc1ccccc1N1CCN(CCCCNC(=O)/C=C/c2ccc(C#N)cc2)CC1 | 9.34 | 8.00 | – | – | –
COc1ccccc1N1CCN(CCCNC(=O)c2ccccc2I)CC1 | 6.67 | 6.90 | – | – | –
COc1ccccc1N1CCN(CCCCNC(=O)/C=C/c2cccc3c2OCO3)CC1 | 9.26 | 8.10 | – | – | –
COc1ccccc1N1CCN(CCCCNC(=O)c2ccc(C(C)=O)cc2)CC1 | 9.00 | 7.76 | – | – | –
COc1ccccc1N1CCN(CCCCNC(=O)c2nccc3ccccc23)CC1 | 8.02 | 7.68 | – | – | –
COc1ccccc1N1CCN(CCCCNC(=O)/C=C/c2ccc(Oc3ccccc3)cc2)CC1 | 8.00 | 7.19 | – | – | –

Compound | pKi (D(3) dopamine receptor [1]) | pKi (D(2) dopamine receptor) | pEC50 (D(3) dopamine receptor [2]) | Intrinsic activity [3] | pEC50 [4]
COc1ccccc1N1CCN(CCCCNC(=O)c2ccc3ccccc3n2)CC1 | 8.18 | – | – | – | –
COc1ccccc1N1CCN(CCCCNC(=O)c2ccc(Cl)cc2)CC1 | 9.30 | 7.71 | – | – | –
COc1ccccc1N1CCN(CCCCNC(=O)c2cccc(I)c2)CC1 | 8.04 | 7.17 | – | – | –
COc1ccccc1N1CCN(CCCCNC(=O)/C=C/c2cccc(Cl)c2)CC1 | 9.34 | 7.70 | – | – | –
COc1ccccc1N1CCN(Cc2cccc(CNC(=O)c3ccc4ccccc4c3)c2)CC1 | 7.00 | 7.35 | – | – | –
COc1ccccc1N1CCN(C2CC3CC(NC4CC5CC(N6CCN(c7ccccc7OC)CC6)CC5C4)CC3C2)CC1 (centres undefined) | 6.45 | 6.99 | – | – | –
COc1ccccc1N1CCN(CCCCN2C(=O)c3cc4ccccc4cc3C2=O)CC1 | 7.63 | 6.84 | – | – | –
COc1ccccc1N1CCN(CCCN2C(=O)c3ccccc3C2=O)CC1 | 6.25 | 6.52 | – | – | –
COc1ccccc1N1CCN(CCCCNC(=O)Cc2ccc3ccccc3c2)CC1 | 7.49 | 7.46 | – | – | –
COc1ccccc1N1CCN(CCCCNC(=O)c2ccc(C(=O)c3ccccc3)cc2)CC1 | 8.60 | 7.20 | – | – | –
COc1ccccc1N1CCN(CCCCNC(=O)CCc2ccccc2)CC1 | 8.32 | 7.31 | – | – | –
COc1ccccc1N1CCN(Cc2ccccc2CNC(=O)c2ccc3ccccc3c2)CC1 | 6.12 | 7.55 | – | – | –
COc1ccccc1N1CCN(CCCCNC(=O)c2cccc3c2-c2ccccc2C3=O)CC1 | 8.53 | 7.74 | – | – | –
COc1ccccc1N1CCN(CCCCNC(=O)C2(c3ccc(Cl)cc3)CCCC2)CC1 | 7.38 | 7.25 | – | – | –
COc1ccccc1N1CCN(C2CC3CC(NC(=O)c4ccc5ccccc5c4)CC3C2)CC1 (centres undefined) | 7.43 | 6.75 | – | – | –
COc1ccccc1N1CCN(CCCCNC(=O)/C=C/c2ccc(/C=C/C(=O)NCCCCN3CCN(c4ccccc4OC)CC3)cc2)CC1 | 8.44 | 8.14 | – | – | –
COc1ccc(/C=C/C(=O)NCCCCN2CCN(c3ccccc3OC)CC2)cc1 | 9.42 | 7.92 | – | – | –
COc1ccc2cc([C@H](C)C(=O)NCCCN3CCN(c4ccccc4OC)CC3)ccc2c1 | 6.58 | 7.02 | – | – | –
COc1ccccc1N1CCN(CCCCNC(=O)c2cc3ccccc3cn2)CC1 | 8.83 | 7.56 | 8.60 | – | –
COc1ccccc1N1CCN(CCCCNC(=O)/C=C/c2cccc(I)c2)CC1 | 8.92 | 6.79 | – | – | –
COc1ccccc1N1CCN(CCCCNC(=O)/C=C/c2ccc(-c3ccccc3)cc2)CC1 | 7.80 | 7.43 | – | – | –
COc1ccccc1N1CCN(CCCCN2C(=O)c3ccccc3C2=O)CC1 | 7.42 | 7.30 | – | – | –
COc1ccccc1/C=C/C(=O)NCCCCN1CCN(c2ccccc2OC)CC1 | 9.25 | 7.85 | – | – | –
COc1ccccc1N1CCN(CCCCNC(=O)/C=C/c2ccc3ccccc3c2)CC1 | 9.17 | 7.49 | – | – | –

Compound | pKi (D(3) dopamine receptor [1]) | pKi (D(2) dopamine receptor) | pEC50 (D(3) dopamine receptor [2]) | Intrinsic activity [3] | pEC50 [4]
COc1ccccc1N1CCN(CCCCN2C(=O)c3cccc4cccc(c34)C2=O)CC1 | 7.54 | 7.40 | – | – | –
COc1ccccc1N1CCN(CCCCNC(=O)/C=C/C=C/c2ccccc2)CC1 | 8.82 | 7.72 | – | – | –
COc1ccccc1N1CCN(CCCCNC(=O)/C=C/c2ccc(Cl)cc2)CC1 | 9.36 | 7.65 | 8.00 | – | –
COc1ccccc1N1CCN(CCCCNC(=O)c2ccc(-c3ccc(Cl)cc3)o2)CC1 | 8.20 | 6.70 | – | – | –
COc1ccccc1N1CCN(CCCCNC(=O)/C=C/c2cccs2)CC1 | 9.23 | 8.02 | – | – | –
COc1ccccc1N1CCN(CCCCNC(=O)/C=C/c2ccc3c(c2)OCO3)CC1 | 9.00 | 7.99 | – | – | –
COc1ccccc1N1CCN(CCCCNC(=O)/C=C/c2ccccc2)CC1 | 9.48 | 7.87 | – | – | –
COc1ccccc1N1CCN(CCCCNC(=O)/C=C/c2cccnc2)CC1 | 9.30 | 7.84 | – | – | –
COc1ccccc1N1CCN(CCCCNC(=O)/C=C/c2ccc(Br)cc2)CC1 | 9.37 | 7.63 | – | – | –
COc1ccccc1N1CCN(CCCCNC(=O)c2ccccc2I)CC1 | 8.11 | 7.82 | – | – | –
COc1ccccc1N1CCN(CCCNC(=O)c2cccc(I)c2)CC1 | 6.52 | 6.63 | – | – | –
COc1ccccc1N1CCN(CCCCNC(=O)/C=C/c2ccc(Cl)c(Cl)c2)CC1 | 8.88 | 7.64 | – | – | –
COc1ccccc1N1CCN(CCCCNC(=O)/C=C/c2cccc(C(F)(F)F)c2)CC1 | 8.39 | 7.30 | – | – | –
COc1ccccc1N1CCN(CCCCNC(=O)c2coc3ccccc3c2=O)CC1 | 8.48 | 7.33 | – | – | –
COc1ccccc1N1CCN(CCCCNC(=O)/C=C/c2ccco2)CC1 | 9.22 | 7.95 | – | – | –
COc1ccccc1N1CCN(CCCCNC(=O)c2ccc(I)cc2)CC1 | 8.41 | 6.84 | – | 0.5 | 8.92
COc1ccccc1N1CCN(CCCCNC(=O)/C=C/c2ccsc2)CC1 | 9.19 | 7.89 | – | – | –
COc1ccccc1N1CCN(CCCCNC(=O)/C=C/c2ccc(OCc3ccccc3)cc2)CC1 | 7.71 | 7.49 | – | – | –
COc1ccccc1N1CCN(C2CC3CC(N4CCN(c5ccccc5OC)CC4)CC3C2)CC1 (centres undefined) | 6.15 | 6.20 | – | – | –
COc1ccccc1N1CCN(CCCCNC(=O)c2cc3ccccc3oc2=O)CC1 | 8.74 | 7.64 | – | – | –
COc1ccccc1N1CCN(CCCCNC(=O)/C=C/c2ccccc2Cl)CC1 | 9.28 | 7.82 | – | – | –
COc1ccccc1N1CCN(CCCNC(=O)Cc2ccc3ccccc3c2)CC1 | 6.85 | 7.25 | – | – | –
COc1ccccc1N1CCN(CCCCNC(=O)c2sc3ccccc3c2Cl)CC1 | 8.17 | 7.14 | – | – | –
